Biological target: cAMP and cAMP-inhibited cGMP 3',5'-cyclic phosphodiesterase 10A (Homo sapiens, UniProt Q9Y233)
Assay: PDE10A assay
Summary of the method: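 Scintillation proximity readout of [3H]cGMP hydrolysis (50 nM final substrate, 15 min) by 2 ng/well human PDE10A after 15 min compound preincubation at RT, pH 7.5 with MgCl2. Four-parameter logistic fit gave IC50, reported as pIC50.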

Compared with `Cn1ncc(C(=O)N2CCOCC2)c1C(=O)Nc1ccc2nc(N3CCCC3)nn2c1` [Roche-Dataset for PDE10A, Compound 415], `Cn1ncc(C(=O)N2CCC2)c1C(=O)Nc1ccn(C2CCC2)n1` [Roche-Dataset for PDE10A, Compound 1093] is 200-fold higher in IC50: 2.45 nM for the first, 496 nM for the second.

Going from `CCOC(=O)CCc1ccc(NC(=O)c2nc(C3CC3)cnc2Nc2cncnc2)c(C(=O)NC)c1` [US8703768, 321] to `CNC(=O)c1cc(CCC(=O)O)ccc1NC(=O)c1nc(C2CC2)cnc1Nc1cncnc1` [US8703768, 328], the IC50 falls from 0.59 nM to 0.39 nM (1.5-fold).

Compared with `CSc1ncc(Br)c(C(=O)Nc2cc(-c3ccccn3)nn2C)n1` [Roche-Dataset for PDE10A, Compound 723], `COCc1ccc(Nc2cncnc2)c(C(=O)Nc2cc(-c3ccccn3)nn2C)n1` [US8470820, 59] is 1200-fold lower in IC50: 7590 nM for the first, 6.57 nM for the second. The second is the more potent here.

First: Cn1ncc(C(=O)N2CCC2)c1C(=O)Nc1nnc(-c2ccccn2)o1 [Roche-Dataset for PDE10A, Compound 1032]
Second: Cn1ncc(C(=O)N2CCC2)c1C(=O)Nc1ccn(C(C)(C)C)n1 [Roche-Dataset for PDE10A, Compound 1109]
The IC50 of the first is 15-fold higher: 10000 nM for the first, 672 nM for the second. The second is the more potent here.

First: Cc1ncc(C)n2nc(CCc3nc(N4CCCOCC4)nn3C)nc12 [Roche-Dataset for PDE10A, Compound 984]
Second: Cc1c(Br)cc(C(F)(F)F)c2nc(CCc3nc(N4CCCC4)nn3C)nn12 [Roche-Dataset for PDE10A, Compound 135]
The IC50 of the first is 3000-fold higher: 1270 nM for the first, 0.43 nM for the second.

First: O=C1c2ccccc2C(=O)N1CCc1nc(-c2cccnc2)no1 [Roche-Dataset for PDE10A, Compound 579]
Second: CCc1cnc(C)cc1NC(=O)c1ccc2cc(-c3ccccc3)nn2c1 [Roche-Dataset for PDE10A, Compound 331]
The IC50 of the first is 200-fold higher: 16400 nM for the first, 84 nM for the second. The second is the more potent here.

First: CN(C)C(=O)c1cnn(C)c1C(=O)Nc1ccn2cc(-c3cccc(Br)c3)nc2n1 [Roche-Dataset for PDE10A, Compound 319]
Second: CN(C)C(=O)c1cnn(C)c1C(=O)Nc1ccn2cc(-c3cccc(OCCCF)c3)nc2n1 [Roche-Dataset for PDE10A, Compound 43]
The IC50 of the first is 5.6-fold higher: 40 nM for the first, 7.17 nM for the second. The second is the more potent here.

First: O=C(N[C@]12C[C@H]3C[C@H](C[C@H](C3)C1)C2)c1nc(C2CC2)cnc1Nc1cncnc1 [Roche-Dataset for PDE10A, Compound 1143]
Second: CN(C)C(=O)Cc1csc(NC(=O)c2nc(C3CC3)cnc2Nc2cncnc2)n1 [Roche-Dataset for PDE10A, Compound 775]
The IC50 of the first is 61-fold higher: 788 nM for the first, 13 nM for the second. The second is the more potent here.

Going from `O=C(Nc1cc2nc(-c3ccccc3)cn2cc1Br)c1nc(C2CC2)ccc1Nc1cncnc1` [Roche-Dataset for PDE10A, Compound 354] to `O=C(Nc1conc1-c1ccccc1)c1nc(C2CC2)ccc1Nc1cncnc1` [Roche-Dataset for PDE10A, Compound 935], the IC50 rises from 1.15 nM to 6.91 nM (6-fold). The first is the more potent here.

Going from `Cc1cc(NC(=O)c2c(C(=O)N3CCC3)cnn2C)nn1C1CCCC1` [Roche-Dataset for PDE10A, Compound 1063] to `CCNC(=O)c1c(NC(=O)c2c(C(=O)N3CCC3)cnn2C)cnn1C` [Roche-Dataset for PDE10A, Compound 1120], the IC50 rises from 437 nM to 3130 nM (7.2-fold).

Compared with `Cc1cc(C)n2nc(/C=C/c3nc(N(C)C)nn3C)nc2n1` [Roche-Dataset for PDE10A, Compound 1144], `Cn1nc(N2CCCC2)nc1CCc1nc2c(C#N)cccn2n1` [Roche-Dataset for PDE10A, Compound 342] is 2-fold lower in IC50: 924 nM for the first, 467 nM for the second. The second is the more potent here.

First: COCc1ccc(Nc2cncnc2)c(C(=O)Nc2cc(-c3ccccn3)nn2CCO)n1 [US8470820, 11]
Second: Cn1nc(-c2ccc(Cl)cn2)cc1NC(=O)c1nc(C2CC2)ccc1Nc1cncnc1 [US8470820, 39]
The IC50 of the first is 1.7-fold higher: 5.24 nM for the first, 3.16 nM for the second.

Compared with `CCn1ccc(NC(=O)c2nc(C3CC3)ccc2Nc2cncnc2)n1` [Roche-Dataset for PDE10A, Compound 819], `O=C(NCCNS(=O)(=O)c1ccccc1)c1nc(C2CC2)cnc1Nc1cncnc1` [Roche-Dataset for PDE10A, Compound 839] is 5.6-fold higher in IC50: 72 nM for the first, 403 nM for the second. The first is the more potent here.

For `Cc1ccc2c(c1)c(=O)n(C)c1c(C)nc(-c3ccccc3Cl)n21` [Roche-Dataset for PDE10A, Compound 948], the IC50 was 27 nM.

Reference: BindingDB's records for doi:10.1007/s10822-022-00478-x (Roche Innovation Center Basel, F. Hoffmann-La Roche Ltd., 2022)
